Key:
[1] = tested on: iNOS mRNA in macrophages (RAW 264.7 cells); test: Suppression of LPS- and IFN-γ-induced iNOS mRNA expression in macrophage (Northern blot); assay type: cell-based; details: LPS 100 ng/ml + IFN-γ 10 U/ml, 18 hours, compound 1, 10 and 100 μM, FIG. 2
Description: In a DMEM medium supplemented with thermally treated 10% fetal calf serum, penicillin (100 U/ml) and streptomycin ([…]), macrophages (RAW 264.7 cells) were cultured to be confluent in a CO2 incubator. After being transferred to a serum-free DMEM medium, the cells were cultured for additional 24 hours and then, further for 18 hours in the presence of LPS (100 ng/ml) and interferon-γ (hereinafter referred to as “IFN-γ”; 10 U/ml), and/or the compound of Chemical Formula 2 (0, 1, 10, and 100:μM). Using a trizol solution, the total RNA was extracted from the cultured macrophages. After quantification in a spectrophotometer, the total RNA obtained was electrophoresed on a formamide-formaldehyde agarose gel and transferred to a nylon membrane. Thereafter, the total RNA on the nylon membrane was hybridized with cDNA probes for iNOS to determine the expression level of iNOS mRNA, in which the cDNA of iNOS was labeled with ^32P-dCTP by a random-primer method. For quantification, an x-ray film was exposed to the radioactive irradiation from the nylon membrane and developed to compare the radioactivity level of desired objects with those of GAPDH. […]

[2] = tested on: iNOS mRNA; test: Suppression of LPS-induced iNOS mRNA expression in rat isolated aorta (Northern blot); assay type: cell-based; details: LPS 300 ng/ml, 8 hours; compound 10, 30 and 100 μM; FIG. 1
Description: Rats were anesthetized with pentobarbital sodium (50 mg/kg) and the aorta was isolated, followed by removing endothelium from the aorta. After being incubated at 37° C. for 8 hours in a Krebs solution containing 300 ng/ml of LPS, the aorta was subjected to total RNA extraction with the aid of a trizol solution (GibcoBRL). After quantification by use of a UV spectrophotometer (Shimadzu, UV-1201), the total RNA obtained was electrophoresed on a formamide-formaldehyde agarose gel and transferred to a nylon membrane. Thereafter, the total RNA on the nylon membrane was hybridized with cDNA probes for iNOS to determine the expression level of iNOS mRNA, in which the cDNA of iNOS was labeled with ^32P-dCTP by a random-primer method. For quantification, an x-ray film was exposed to the radioactive irradiation from the nylon membrane and developed to compare the dot sizes of desired objects with those of GAPDH (glyceraldehyde-3-phosphate dehydrogenase).
When aortic preparations were incubated, in vitro, the blood vessel was cultured, in vitro, in the presence of LPS, iNOS mRNA was transcribed in a large amount. […]

| SMILES | LPS/IFN-γ-induced iNOS mRNA expression in macrophages [1] | LPS-induced iNOS mRNA expression in isolated rat aorta [2] |
| --- | --- | --- |
| Oc1cc2c(cc1O)C(Cc1ccc3ccccc3c1)NCC2 (stereo not drawn) [Compound 2, 1-β-naphthylmethyl-6,7-dihydroxy-1,2,3,4-tetrahydroisoquinoline] | inhibits the LPS/IFN-γ-induced iNOS mRNA expression in a concentration-dependent manner |  |
| Oc1cc2c(cc1O)C(Cc1cccc3ccccc13)NCC2 (stereo not drawn) [Compound 1, 1-α-naphthylmethyl-6,7-dihydroxy-1,2,3,4-tetrahydroisoquinoline] |  | inhibits the LPS-induced iNOS mRNA expression in a concentration-dependent manner |

Source: US6562837B1, “Use of tetrahydroisoquinoline compounds for the treatment of septicemia” (Korea Institute of Science & Technology, priority 1998, dated 2003)
